The values below come from ChEMBL document CHEMBL3044553, “Amino steroids as antimalarial agents” (2008).

≈ marks a conversion by molar mass, not a printed value. A value given as a limit tells only on which side of the number the result lay.

The assay has as its system Plasmodium falciparum. As to the kind of experiment: Antimalarial activity against chloroquine-sensitive Plasmodium falciparum NF54 assessed as inhibition of maturation of rings into schizonts stage. It counts as functional.

Usually MIC stands for the smallest concentration in the dilution series that meets the test's criterion for growth inhibition. Regarding `CC(=O)O[C@@H]1CC[C@@]2(C)[C@H](CC[C@@H]3[C@@H]2C[C@H](OC(C)=O)[C@]2(C)[C@@H]([C@H](C)CCNCc4ccccc4)CC[C@@H]32)C1`, the minimum inhibitory concentration (MIC) amounted to 50 µg/mL (≈ 93 µM). `CCCCNC[C@@H](C)[C@H]1CC[C@H]2[C@@H]3CC[C@@H]4C[C@H](OC(C)=O)CC[C@]4(C)[C@H]3C[C@H](OC(C)=O)[C@]12C`: the MIC was over 10 µg/mL. As for `CCCCNCC[C@@H](C)[C@H]1CC[C@H]2[C@@H]3CC[C@@H]4C[C@H](OC(C)=O)CC[C@]4(C)[C@H]3C[C@H](OC(C)=O)[C@]12C`, the MIC is over 50 µg/mL. The value for `NCCCNc1ccnc2cc(Cl)ccc12` was 10 µg/mL (≈ 42.4 µM); that for `CC(=O)O[C@@H]1CC[C@@]2(C)[C@H](CC[C@@H]3[C@@H]2C[C@H](OC(C)=O)[C@]2(C)[C@@H]([C@H](C)CNCCCCNc4ccnc5cc(Cl)ccc45)CC[C@@H]32)C1` was 1 µg/mL (≈ 1.5 µM); that for `CC(=O)O[C@@H]1CC[C@@]2(C)[C@H](CC[C@@H]3[C@@H]2C[C@H](OC(C)=O)[C@]2(C)[C@@H]([C@H](C)CNCCCNc4ccnc5cc(Cl)ccc45)CC[C@@H]32)C1` was 0.5 µg/mL (≈ 0.766 µM). The value for `CC(=O)O[C@@H]1CC[C@@]2(C)[C@H](CC[C@@H]3[C@@H]2C[C@H](OC(C)=O)[C@]2(C)[C@@H]([C@H](C)CNCc4ccccc4)CC[C@@H]32)C1` was 2 µg/mL (≈ 3.82 µM); that for `NCCCCNc1ccnc2cc(Cl)ccc12` was 2 µg/mL (≈ 8.01 µM); that for `CC(=O)O[C@@H]1CC[C@@]2(C)[C@H](CC[C@@H]3[C@@H]2C[C@H](OC(C)=O)[C@]2(C)[C@@H]([C@H](C)CCNC(C)C)CC[C@@H]32)C1` was over 50 µg/mL. `CC(=O)O[C@@H]1CC[C@@]2(C)[C@H](CC[C@@H]3[C@@H]2C[C@H](OC(C)=O)[C@]2(C)[C@@H]([C@H](C)CNC(C)C)CC[C@@H]32)C1`: the MIC is 10 µg/mL (≈ 21 µM). The value for `CCN(CC)CCCC(C)Nc1ccnc2cc(Cl)ccc12` (stereo unspecified) [CHLOROQUINE] was 0.04 µg/mL (≈ 0.125 µM).
